Source: patent publication US20220401407A1, “REGULATION OF THE SLEEP/WAKE CYCLE USING C[…]” (Demetrix, Inc., priority 2021, published 2022)
“Also recorded” adds a separate entry of the source.

What was measured:
Type in all cases: cell-based
HCRTR1 [1] = target: T1, HCRTR1 (Homo sapiens, UniProt O43613); assay: PathHunter β-Arrestin GPCR agonist assay, HCRTR1; parameters: concentration or dose not given beside the values; conditions: agonist mode; Orexin A as control
T1 sequence (O43613 1-425): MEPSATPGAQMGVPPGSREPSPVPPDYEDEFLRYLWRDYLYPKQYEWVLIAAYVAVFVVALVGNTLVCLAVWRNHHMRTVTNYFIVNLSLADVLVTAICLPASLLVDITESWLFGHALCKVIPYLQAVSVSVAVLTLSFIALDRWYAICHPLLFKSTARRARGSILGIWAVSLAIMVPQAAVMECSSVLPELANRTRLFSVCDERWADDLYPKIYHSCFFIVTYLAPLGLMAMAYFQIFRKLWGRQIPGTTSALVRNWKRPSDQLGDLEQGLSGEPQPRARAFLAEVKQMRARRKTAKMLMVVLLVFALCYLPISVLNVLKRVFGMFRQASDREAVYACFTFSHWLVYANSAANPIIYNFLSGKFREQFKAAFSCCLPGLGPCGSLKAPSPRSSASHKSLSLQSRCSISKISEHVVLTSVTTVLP
Experimental: (§1) To evaluate the role specific cannabinoid compounds may play on the sleep/wake cycle, a GPCR reactivity assay was performed to determine the reactivity of 19 cannabinoid compounds to the orexin receivers HCRTR1 and HCRTR2. The evaluated cannabinoid compounds were: CBN, THCV, CBDVA, CBG, CBL, CBC, CBDV, CBDA, CBD, CBGA, (+)-CBD, CBG-C4, CBD-C1, CBD-C2, CBGV, CBGA-C4, CBGVA, CBCA, and CBLA. Orexin A was used as the control for HCRTR1 and HCRTR2.
(§2) To perform the GPCR reactivity assay, a commercial GPCR assay, PathHunter® β-Arrestin from Eurofins DiscoverX Products (Fremont, Calif.), was used. […] At activation of the GPCR receptor and recruitment of β-arrestin, complementation of the peptide fragments occurs and restores β-galactosidase activity. The amount of β-galactosidase activity is then measurable using chemiluminescent reagents.
(§3) A total of four assays were run. Agonist assays were run for each of HCRTR1 and HCRTR2 and antagonist assays were run for HCRTR1 and HCRTR2. In each of the two agonist assays, PathHunter® cell lines were removed from a freezer stock and seeded at a volume of 20 μL into white walled, 384-well microplates and incubated at 37° C. Each cell was incubated with a sample to induce a response and then diluted to generate a 5× sample in assay buffer. 5 μL of the 5× sample was then added to cells and incubated at 37° C. for 90 or 180 minutes. The final assay concentration was 1%. The assay signal was generated through addition of 12.5 μL or 15 μL (50% V/V) of a detection reagent cocktail followed by a one hour incubation time at room temperature. Microplates were read following signal generation with a PerkinElmer Envision™ (PerkinElmer Inc., Waltham, Mass.) for chemiluminescent signal detection. Reactivity was analyzed using the CBIS data analysis suite (ChemInnovation, CA) where RLU refers to the raw measured values. The percent activity was then calculated using the formula: % Activity=100%*(mean RLU of test sample−mean RLU of control)/(mean max control ligand−mean RLU of vehicle control).
(§4) For agonist activity, the percent activity is depicted while for antagonist activity, the percent inhibition is depicted.

HCRTR2 [2] = target: T2, HCRTR2 (Homo sapiens, UniProt O43614); assay: PathHunter β-Arrestin GPCR agonist assay, HCRTR2; parameters: concentration or dose not given beside the values; conditions: agonist mode; Orexin A as control
T2 sequence (O43614 1-444): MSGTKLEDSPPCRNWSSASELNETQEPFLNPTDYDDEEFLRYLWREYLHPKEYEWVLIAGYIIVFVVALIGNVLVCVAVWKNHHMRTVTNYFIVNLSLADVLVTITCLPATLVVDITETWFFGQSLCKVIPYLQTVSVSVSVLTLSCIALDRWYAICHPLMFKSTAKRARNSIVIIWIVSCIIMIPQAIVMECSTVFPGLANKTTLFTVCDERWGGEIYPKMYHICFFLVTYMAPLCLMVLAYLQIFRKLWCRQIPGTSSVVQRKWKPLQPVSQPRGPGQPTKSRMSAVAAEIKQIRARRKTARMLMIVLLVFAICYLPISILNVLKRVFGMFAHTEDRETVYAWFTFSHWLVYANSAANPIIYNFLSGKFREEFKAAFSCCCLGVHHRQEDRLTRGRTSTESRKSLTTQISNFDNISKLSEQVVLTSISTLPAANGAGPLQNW
Experimental: as §1, §2, §3, §4

HCRTR1 [3] = target: T1, HCRTR1; assay: PathHunter β-Arrestin GPCR antagonist assay, HCRTR1; conditions: for HCRTR1 (Antagonist) percent inhibition: antagonist mode, agonist challenge at EC80
Experimental: as §1, §2
(§5) In each of the two antagonist assays, PathHunter® cell lines were removed from a freezer stock and seeded at a volume of 20 μL into white walled, 384-well microplates and incubated at 37° C. Each cell was pre-incubated with an antagonist followed by an agonist challenge at the EC80 concentration. Cells were then diluted to generate a 5× sample in assay buffer. 5 μL of the 5× sample was then added to cells and incubated at 37° C. for 30 minutes. Finally, 5 μL of 6×EC80 agonist in assay buffer were added to the cells and incubated at 37° C. for 90 minutes or 180 minutes. The assay signal was generated through addition of 12.5 μL or 15 μL (50% V/V) of a detection reagent cocktail followed by a one hour incubation time at room temperature. Microplates were read following signal generation with a PerkinElmer Envision™ (PerkinElmer Inc., Waltham, Mass.) for chemiluminescent signal detection. Reactivity was analyzed using the CBIS data analysis suite (ChemInnovation, CA) where RLU refers to the raw measured values. The percent inhibition was calculated using the formula: % Inhibition=100%*(1−mean RLU of test sample−mean RLU of control)/(mean RLU of EC80 control−mean RLU of vehicle control).
as §4

HCRTR2 [4] = target: T2, HCRTR2; assay: PathHunter β-Arrestin GPCR antagonist assay, HCRTR2; conditions: for HCRTR2 (Antagonist) percent inhibition: antagonist mode, agonist challenge at EC80
Experimental: as §1, §2, §5, §4

dopamine receptor DRD5 = dopamine receptor DRD5 (Homo sapiens, UniProt P21918); assay: PathHunter β-Arrestin GPCR agonist assay, DRD5; parameters: DRD5 (Agonist) percent activity: concentration or dose not given beside the values; conditions: agonist mode; dopamine as control
Text: as §2, §3
Table 2 depicts the results of evaluating the cannabinoid compounds to act as an agonist for the dopamine receptor DRD5. The same experimental procedure as used for HCRTR1 and HCRTR2 agonist testing (Table 1) was followed with the substitution of dopamine as the control for the DRD5 receptor.

Chain of dopamine receptor DRD5 (P21918 whole entry): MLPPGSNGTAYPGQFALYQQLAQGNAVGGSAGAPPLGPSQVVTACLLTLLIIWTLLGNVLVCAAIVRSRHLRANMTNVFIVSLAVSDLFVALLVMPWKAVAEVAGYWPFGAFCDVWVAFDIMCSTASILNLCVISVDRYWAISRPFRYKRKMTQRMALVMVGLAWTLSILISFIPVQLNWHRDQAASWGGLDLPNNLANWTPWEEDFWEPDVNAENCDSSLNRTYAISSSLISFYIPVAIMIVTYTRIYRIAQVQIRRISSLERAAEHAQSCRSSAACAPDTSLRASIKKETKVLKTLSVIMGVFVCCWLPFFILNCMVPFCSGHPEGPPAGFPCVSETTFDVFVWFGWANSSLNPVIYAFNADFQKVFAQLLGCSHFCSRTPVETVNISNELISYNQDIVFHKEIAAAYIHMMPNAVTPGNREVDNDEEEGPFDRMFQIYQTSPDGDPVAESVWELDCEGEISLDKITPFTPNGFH

Row | Molecule | HCRTR1 (Agonist) percent activity (HCRTR1 [1]) [%] | HCRTR2 (Agonist) percent activity (HCRTR2 [2]) [%] | antagonist effect on HCRTR1 (in words) (HCRTR1 [3]) | HCRTR1 (Antagonist) percent inhibition (HCRTR1 [3]) [%] | antagonist effect on HCRTR2 (in words) (HCRTR2 [4]) | HCRTR2 (Antagonist) percent inhibition (HCRTR2 [4]) [%] | DRD5 (Agonist) percent activity (dopamine receptor DRD5) [%]
1 | CCCCCc1cc2c(c(O)c1C(=O)O)C1C3C(CCC3(C)O2)C1(C)C (stereo not shown) [CBLA, cannabicyclolic acid] | 2 | 0 | do not demonstrate meaningful activity | 7 | do not demonstrate meaningful activity | 15 | 0
2 | (+)-cannabidiol [(+)-CBD] | 3 | 8 | antagonist effect; also recorded: acted as an antagonist | 97 | antagonist effect; also recorded: acted as an antagonist | 80 | 9
3 | CCCCc1cc(O)c(C/C=C(\C)CCC=C(C)C)c(O)c1C(=O)O [CBGA-C4, cannabigerolic acid butyl] | 3 | 1 | do not demonstrate meaningful activity | 2 | do not demonstrate meaningful activity | 10 | 0
4 | C=C(C)[C@@H]1CCC(C)=C[C@H]1c1c(O)cc(CC)cc1O [CBD-C2, cannabidol-C2] | 2 | 1 | do not demonstrate meaningful activity | 20 | do not demonstrate meaningful activity | 13 | 1
5 | C=C(C)[C@@H]1CCC(C)=C[C@H]1c1c(O)cc(CCC)c(C(=O)O)c1O [CBDVA, cannabidivarinic acid] | 0 | 0 | do not demonstrate meaningful activity | 7 | do not demonstrate meaningful activity | 10 | 4
6 | CCCCCc1cc(O)c2c(c1)OC(C)(CCC=C(C)C)C=C2 (stereo not shown) [CBC, cannabichromene] | 0 | 3 | antagonist effect; also recorded: acted as an antagonist | 98 | antagonist effect; also recorded: acted as an antagonist | 96 | 22
7 | C=C(C)[C@@H]1CCC(C)=C[C@H]1c1c(O)cc(C)cc1O [CBD-C1, cannabidiorcol] | 3 | 1 | do not demonstrate meaningful activity | 12 | do not demonstrate meaningful activity | 9 | 0
